From patent EP1272854B1, “METHOD FOR DETECTING A HORMONE DISRUPTING ACTIVITY OF ENVIRONMENTAL POLLUTANTS” (Meulenberg, Petronella Mariette Maria, priority 2000, dated 2001)

Tested on: SHBG (post partum serum)
Assay: not given
Details: competition with 3H-5-alpha-DHT; cited from earlier work

Row | Molecule | binding to SHBG
1 | CCNc1nc(Cl)nc(NC(C)C)n1 [Atrazine] | not found
2 | ClC1=C(Cl)[C@]2(Cl)[C@@H]3[C@@H]4C[C@@H]([C@H]5O[C@@H]45)[C@@H]3[C@@]1(Cl)C2(Cl)Cl [dieldrin] | not found
3 | COc1ccc(C(c2ccc(OC)cc2)C(Cl)(Cl)Cl)cc1 [methoxychlor] | not found
4 | Clc1ccc(C(c2ccccc2Cl)C(Cl)(Cl)Cl)cc1 (centres unmarked) [o,p'-DDT] | showed binding
5 | ClC(Cl)=C(c1ccc(Cl)cc1)c1ccc(Cl)cc1 [p,p'-DDE] | not found
6 | Clc1ccc(C(c2ccc(Cl)cc2)C(Cl)(Cl)Cl)cc1 [p,p'-DDT] | not found
7 | Oc1c(Cl)c(Cl)c(Cl)c(Cl)c1Cl [pentachlorophenol] | showed binding
8 | Nonylphenol | showed binding

Tested on: SHBG
Assay: not given
Details: association constant; see Dunn et al. 1981; cited from earlier work

Row | Molecule | affinity for SHBG
9 | C[C@]12CC[C@@H]3c4ccc(O)cc4CC[C@H]3[C@@H]1CC[C@@H]2O [Oestradiol] | 7e-10 M⁻¹

Same assay, conditions: see Dunn et al. 1981; read-out: affinity for SHBG (converted); cited from earlier work

Row | Molecule | Kd
10 | C[C@]12CC[C@H]3[C@@H](CCC4=CC(=O)CC[C@@]43C)[C@@H]1CC[C@@H]2O [Testosterone] | 62.5 nM

Same assay, conditions: testosterone versus oestradiol; cited from earlier work

Row | Molecule | affinity to SHBG relative to oestradiol
11 | C[C@]12CC[C@H]3[C@@H](CCC4=CC(=O)CC[C@@]43C)[C@@H]1CC[C@@H]2O [Testosterone] | approximately 3 times

Tested on: SHBG (Sex Hormone Binding Globulin) from serum of pregnant volunteers
Assay: SHBG assay: competitive displacement of tritiated oestradiol from antibody-captured SHBG on microtiter plate
Set-up: species or system human
Details: discussion of the SHBG assay results
Description: Sub figure 1a: HPAA = Hypothalamus-Pituitary-Adrenal-Axis; CRH = Corticotrophin Releasing Hormone; ACTH = Adrenocorticotrophic Hormone; Adrenal = adrenal gland. Sub figure 1b: HPTeA = Hypothalamus-Pituitary-Testis-Axis; LHRH = Luteinizing Hormone Releasing Hormone; LH = Luteinizing Hormone. […] The values are the averages of 11 measurements. […] Plotted out is the bound fraction as a percentage of the total quantity of added ^3H-E2 against the concentration of the test compound.
The SHBG assay was developed for detecting a possible oestrogenic activity of xenobiotic substances. As main component use was made of SHBG from serum of pregnant volunteers in the third trimester of pregnancy. Additionally use was made of commercially available polyclonal anti-SHBG antibody (DAKO) to isolate SHBG from serum on a microtiter plate. […] As standard testosterone (Sigma-Aldrich B.V., Zwijndrecht, the Netherlands) was used in a concentration series.
All compounds to be analyzed are related to the testosterone standard curve. For the analysis of an oestrogenic effect various compounds were tested in the SHBG assay, including endogenous steroids, pharmaceutical substances, pesticides and industrial waste products (alkyl phenols). […]

Row | Molecule | displacement of oestradiol / affinity to SHBG (in words)
12 | C#CC1(O)CC[C@H]2[C@@H]3CCC4=CC(=O)CC[C@@H]4[C@H]3CC[C@@]21CC (mixture of isomers) [Norgestrel, reference compound] | high affinity
13 | CNC(=O)O/N=C/C(C)(C)SC [Aldicarb] | ambiguous result
14 | CCNc1nc(Cl)nc(NC(C)C)n1 [Atrazine] | no activity at all
15 | CC(C)(c1ccc(O)cc1)c1ccc(O)cc1 [Bisphenol-A] | remarkably strong effect
16 | CC/C(=C(/CC)c1ccc(O)cc1)c1ccc(O)cc1 [DES, reference compound] | high affinity
17 | O=C(O)CNCP(=O)(O)O [Glyphosate] | ambiguous result
18 | CCCCC(O)(Cn1cncn1)c1ccc(Cl)cc1Cl (centres unmarked) [Hexaconazole] | ambiguous result
19 | CC1(C)C(C=C(Cl)Cl)C1C(=O)OCc1cccc(Oc2ccccc2)c1 (centres unmarked) [Permethrin] | clear displacement
20 | CCNc1nc(Cl)nc(NCC)n1 [Simazine] | ambiguous result
21 | CC(C)(C)C(O)(CCc1ccc(Cl)cc1)Cn1cncn1 (centres unmarked) [Tebuconazole] | ambiguous result
22 | Nonylphenol | remarkably strong effect

Same assay, conditions: displacement of 3H-oestradiol from SHBG; related to testosterone standard curve

Row | Molecule | Activity (score for the displacement of tritiated oestradiol)
23 | C#CC1(O)CC[C@H]2[C@@H]3CCC4=CC(=O)CC[C@@H]4[C@H]3CC[C@@]21CC (mixture of isomers) [Norgestrel, reference compound] | + + (strong displacement)
24 | O=C(O)COc1ccc(Cl)cc1Cl [2.4-D] | + (moderate displacement)
25 | C[C@H]1C[C@@H]2[C@H]([C@@H](O)C[C@@]3(C)[C@H]2CC[C@]3(O)C(=O)CO)[C@@]2(C)C=CC(=O)C=C12 [6-alpha-methylprednisolone, reference compound] | + (moderate displacement)
26 | CNC(=O)O/N=C/C(C)(C)SC [Aldicarb] | +/-
27 | C[C@]12CC[C@@H](O)C[C@@H]1CC[C@@H]1[C@@H]2CC[C@]2(C)C(=O)CC[C@@H]12 [Andosterone, reference compound] | + (moderate displacement)
28 | CCNc1nc(Cl)nc(NC(C)C)n1 [Atrazine] | - (no displacement)
29 | CC(C)(c1ccc(O)cc1)c1ccc(O)cc1 [Bisphenol-A] | + + (strong displacement)
30 | CC/C(=C(/CC)c1ccc(O)cc1)c1ccc(O)cc1 [DES, reference compound] | + + (strong displacement)
31 | C[C@]12CC[C@H](O)CC1=CC[C@@H]1[C@@H]2CC[C@]2(C)C(=O)CC[C@@H]12 [Dehydro-iso-andosterone, reference compound] | + (moderate displacement)
32 | CN(C)S(=O)(=O)N(SC(F)(Cl)Cl)c1ccccc1 [Dichlofluanide] | + (moderate displacement)
33 | O=C(O)CNCP(=O)(O)O [Glyphosate] | +/-
34 | CCCCC(O)(Cn1cncn1)c1ccc(Cl)cc1Cl (centres unmarked) [Hexaconazole] | +/-
35 | CCOC(=O)CC(SP(=S)(OC)OC)C(=O)OCC (centres unmarked) [Malathion] | + (moderate displacement)
36 | CC1(C)C(C=C(Cl)Cl)C1C(=O)OCc1cccc(Oc2ccccc2)c1 (centres unmarked) [Permethrin] | + + (strong displacement)
37 | CCNc1nc(Cl)nc(NCC)n1 [Simazine] | + /-
38 | CC(C)(C)C(O)(CCc1ccc(Cl)cc1)Cn1cncn1 (centres unmarked) [Tebuconazole] | +/-
39 | C[C@]12CC[C@H]3[C@@H](CCC4=CC(=O)CC[C@@]43C)[C@@H]1CC[C@@H]2O [Testosterone] | + + (strong displacement)
40 | C=CC1(C)OC(=O)N(c2cc(Cl)cc(Cl)c2)C1=O (centres unmarked) [Vinclozolin] | + (moderate displacement)
41 | Nonylphenol | + + (strong displacement)
